One test has as its system Desulfovibrio vulgaris. Nature of the test: Log10 reduction in viable count of anaerobes after treatment of inoculated high-TDS aqueous system. Type of test: cell-based. The note with it: for Log10 Reduction Anaerobes: TDS 30,000 mg l^−1, 5 = complete kill. As to the method: (§1) Aqueous systems inoculated with anaerobe and facultative anaerobe culture and having a total dissolved solids (TDS) concentration of 30,000 mg l^−1 were prepared and treated with treatment agents comprising: (a) a phosphonium compound and (b) a nitro compound. The phosphonium compound (a) used was tri n-butyl n-tetradecyl phosphonium chloride (TTPC). The nitro compound (b) used was 2-hydroxymethyl-2-nitro-1,3-propanediol (THNM).
(§2) A suspension of Desulfovibrio vulgaris plus Enterobacter aerogenes bacteria containing from 1×10^5 to 1×10^6 cells/mL was prepared in sterile pH 8 phosphate buffer containing sodium chloride to give the desired total dissolved solids (TDS) concentration. Aliquots of this suspension were dosed with the indicated concentrations of the compounds (a) and (b) with the concentrations being measured as ppm. The mixtures were allowed to stand at room temperature. At the designated contact times, each mixture was sampled to determine the total number of viable cells of both Desulfovibrio vulgaris and Enterobacter aerogenes by serial 10-fold dilution into API RP 38 media vials and anaerobic acid producing media vials, respectively. The vials were incubated at 37° C. for 72 hours. Results were recorded as log10 reduction in the viable count versus the control.
(§3) The efficacy of the treatment agents was evaluated by measuring the Log10 Reduction of the anaerobic bacterium Desulfovibrio vulgaris and the facultative anaerobic bacterium Enterobacter aerogenes after contact times of 1 hour, 4 hours and 24 hours as detailed in Table 1. For TTPC the stated ppm value relates to the amount of TTPC added (active). For the THNM the stated ppm relates to the amount of THNM added (active).

The subject of another test is Enterobacter aerogenes. Put plainly: Log10 reduction in viable count of facultative anaerobes after treatment of inoculated high-TDS aqueous system. The conditions noted are these: for Log10 Reduction Facultative Anaerobes: TDS 30,000 mg l^−1, 8 = complete kill. Type of test: cell-based. The method, then: as §1, §2, §3
Where [1] appears, read: Example 1: TTPC 3.125 ppm active alone, contact time 1 hour.
[2] abbreviates: Example 2: TTPC 6.25 ppm active alone, contact time 1 hour.
Where [3] appears, read: Example 9: TTPC 3.125 ppm active alone, contact time 4 hours.
[4] abbreviates: Example 10: TTPC 6.25 ppm active alone, contact time 4 hours.
The mark [5] stands for this setting: Example 17: TTPC 3.125 ppm active alone, contact time 24 hours.
Setting [6] is: Example 18: TTPC 6.25 ppm active alone, contact time 24 hours.
Setting [7] is: Example 3: THNM 75 ppm active alone, contact time 1 hour.
The mark [8] stands for this setting: Example 4: THNM 150 ppm active alone, contact time 1 hour.
Where [9] appears, read: Example 11: THNM 75 ppm active alone, contact time 4 hours.
Setting [10] is: Example 12: THNM 150 ppm active alone, contact time 4 hours.
Where [11] appears, read: Example 19: THNM 75 ppm active alone, contact time 24 hours.
Setting [12] is: Example 20: THNM 150 ppm active alone, contact time 24 hours.
Setting [13] is: THNM alone, even at concentrations of 150 ppm.

Take `CCCCCCCCCCCCCC[P+](CCCC)(CCCC)CCCC.[Cl-]` [TTPC, tri n-butyl n-tetradecyl phosphonium chloride]: the “Log10 Reduction Anaerobes” value with Desulfovibrio vulgaris (setting [1]) came to 0; in the test with Desulfovibrio vulgaris (setting [2]), 1; in the test with Desulfovibrio vulgaris (setting [3]), 5; in the test on Desulfovibrio vulgaris (setting [4]), 5; in the test with Desulfovibrio vulgaris (setting [5]) it was 5; in the test on Desulfovibrio vulgaris (setting [6]) it was 5. The “Log10 Reduction Facultative Anaerobes” value in the test with Enterobacter aerogenes (setting [1]) amounted to 1; in the test on Enterobacter aerogenes (setting [2]), 3; in the test with Enterobacter aerogenes (setting [3]), 2; with Enterobacter aerogenes (setting [4]), 4; in the test on Enterobacter aerogenes (setting [5]) it was 3; in the test with Enterobacter aerogenes (setting [6]), 5.
Regarding `O=[N+]([O-])C(CO)(CO)CO` [THNM, 2-hydroxymethyl-2-nitro-1,3-propanediol], the “Log10 Reduction Anaerobes” value with Desulfovibrio vulgaris (setting [7]), with Desulfovibrio vulgaris (setting [8]), in the test on Desulfovibrio vulgaris (setting [9]), with Desulfovibrio vulgaris (setting [10]), in the test on Desulfovibrio vulgaris (setting [11]) and in the test with Desulfovibrio vulgaris (setting [12]) was 0 throughout. For the same compound, the effect on anaerobes result in the test with Desulfovibrio vulgaris (setting [13]) is “no affect”. Besides, the “Log10 Reduction Facultative Anaerobes” value with Enterobacter aerogenes (setting [7]), in the test on Enterobacter aerogenes (setting [8]), with Enterobacter aerogenes (setting [9]), in the test with Enterobacter aerogenes (setting [10]), with Enterobacter aerogenes (setting [11]) and with Enterobacter aerogenes (setting [12]) was 0 each time. In addition, the “effect on facultative anaerobes” value in the test on Enterobacter aerogenes (setting [13]) was “no affect”.

Source of the values: patent US9957173B2, “Treatment of water” (BWA WATER ADDITIVES UK LIMITED, priority 2015, dated 2018).
